Experimental data reported in patent US8962838B2, “Platinum complexes and their use” (Westfaelische Wilhelms-Universitaet Muenster, priority 2011, dated 2015).

System: HeLa S3 cells
Experiment: Cytotoxicity experiments, percentage of viable cells by Casy-1 cell counter
Type: cell-based
Settings: 24 h incubation
Protocol: Cytotoxicity Experiments: HeLa S3 cells were seeded into 12-well tissue culture dishes in a density of approximately 80000 cells per well. The logarithmically growing cells were cultured for 24 h in Ham's F12 nutrient mixture containing 10% fetal bovine serum, 100 U penicillin per mL and […] streptomycin per mL and incubated at 37° C. with 5% CO2 in air and 100% humidity until the Pt-complexes were added. The cytotoxicity of the Pt-complexes was elucidated by quantifying the percentage of viable cells. Cell viability was measured after 24 h Pt-complex incubation and trypsinizing of cells, by an automatic cell counter (Casy-1, Roche Innovatis AG). These measurements are based on non-invasive (dye-free) electrical current exclusion with signal evaluation via pulse area analysis and allow the structural integrity of cells (membrane integrity and cell death).

## C[S+](C)[O-] [DMSO]
  DMSO concentration at which no toxic effect was detectable: Below 1.8%
2.5% DMSO
  cytotoxicity: a high amount of viable Hela-S3 cells but still some dead cells were detected
DMSO concentration from 10% down to 5%
  cytotoxicity: extremely toxic
